From patent US8735152B2, “Methods for inducing cell death in pluripotent stem cells and differentiated cells other than cardiac myocytes” (Daiichi Sankyo Company, Limited, priority 2009, dated 2014) come the findings set out here.

Some results are limits rather than exact numbers.

Holding throughout (format): cell-based
Data set [1] relates to human embryonic stem cell-derived embryoid bodies. The data set can be described thus: Cell death inducing effect on residual stem cells in human embryonic stem cell-derived embryoid bodies and enrichment of cardiomyocytes. The conditions noted are these: 0.45 M, 2 hours. The method, then: After passaging, human embryonic stem cells were subjected to suspension culture in a culture medium [α-MEM (minimum essential medium) (SIGMA), supplemented with 10% FBS (EQUITEC BIO), 100 units/ml penicillin, and 50 μg/ml streptomycin (GIBCO)] to induce formation of embryoid bodies. At 14-18 days after the start of differentiation (the start of suspension culture), autonomously pulsating cells started to differentiate, which was confirmed in a separate step that they were cardiomyocytes.
The embryoid bodies still maintained an autonomously pulsating ability after the passage of 3 months from the start of differentiation. They were partially treated with 0.1% collagenase (Wortington) and 0.1% trypsin (DIFCO) to be dispersed as fine cell masses. The cell masses were divided into two groups; one group was treated with 0.45 M mannitol (approximately equivalent to 720 mOsm/kg) for 2 hours, and the other group (control) was not treated with mannitol but treated with the same amount of a solution having the physiological osmotic pressure, Ads buffer (116.4 mM NaCl, 5.4 mM KCl, 5.6 mM dextrose, 10.9 mM NaH2PO4, 405.7 μM MgSO4, 20 mM Hepes, pH 7.3) for 2 hours. After the treatment, both cell groups were subjected to adherent culture for 3 days in a DMEM solution supplemented with 10% fetal calf serum.
The mannitol-treated cells and the control cells were analyzed in accordance with the experimental procedure of Example 1 using a mouse anti-Oct-3/4 monoclonal antibody (No. 084720 of BD Transduction Laboratories) and a goat anti-Nkx 2.5 antibody (No. N-19 of Santacruz) as primary antibodies, for the expression of the Oct-3/4 protein which was both a marker of embryonic stem cells and an intranuclear transcription factor, and for the expression of the Nkx 2.5 protein which was both a cardiomyocyte marker and an intranuclear transcription factor, respectively. The results for the control group, one of the two divided samples, are shown in FIG. 10 and the results for the test group subjected to 2-hr treatment with mannitol are shown in FIG. 11. The upper panels of FIG. 10 show the results of cardiomyocytes and the lower panels show the results of embryonic stem cells.
The embryoid bodies still maintained an autonomously pulsating ability after the passage of 3 months from the start of differentiation. They were partially treated with 0.1% collagenase (Wortington) and 0.1% trypsin (DIFCO) to be dispersed as fine cell masses. The cell masses were divided into two groups; one group was treated with saccharides (sugar alcohols: sorbitol, xylitol, and glycerol; sugars: sucrose and glucose; betaines: trimethylglycine) for 12 hours in an amount of 0.45 M (approximately equivalent to 700-780 mOsm/kg) or 0.6 M (approximately equivalent to 850-1000 mOsm/kg), and the other group (control) was not treated with those saccharides but treated with the same amount of a solution having the physiological osmotic pressure, Ads buffer (116.4 mM NaCl, 5.4 mM KCl, 5.6 mM dextrose, 10.9 mM NaH2PO4, 405.7 μM MgSO4, 20 mM Hepes, pH 7.3) for 2 hours. After the treatment, both cell groups were cultured for 12 hours in a DMEM solution supplemented with 10% fetal calf serum.
Samples of differentiated cells derived from human embryonic stem cells, as treated with 0.45 M glycerol (approximately equivalent to 710 mOsm/kg) or 0.6 M glycerol (approximately equivalent to 870 mOsm/kg), were examined for their morphology under the culture conditions. […] The cell death inducing effect was noticeable when the cells were exposed to glycerol for 10 hours and longer (FIG. 14).

Data set [2] concerns mouse embryonic stem cell-derived cardiomyocytes, residual undifferentiated embryonic stem cells and other cells. Put plainly: Mannitol treatment of culture system containing both embryonic stem cell-derived cardiomyocytes and residual embryonic stem cells. Particulars: 0.45 M, 36 hours. The method, then: Mouse derived embryonic stem cells were treated by the method of Example 1 to form embryoid bodies, which were differentiated to a stage containing the programmed cardiomyocytes (precardiac mesoderms). Thus obtained embryoid bodies were treated with digestive enzymes (trypsin and collagenase) meticulously to ensure that no cell damage would be caused and the resulting partially dispersed embryoid bodies were subjected to another adherent culture. Upon a 5-day continued culture, populations of cardiomyocytes pulsating autonomously (the cell populations circled by the red lines), cell populations having the traits of embryonic stem cells-like cells (the cell populations circled by the yellow lines), and other cell populations were observed together (see FIG. 2(a)). In the next step, the culture medium for the mixed culture was replaced by a serum-free α-MEM culture medium containing mannitol in 0.45 M (approximately equivalent to 720 mOsm/kg) and ITS {insulin (10 mg/L), transferrin (5.5 mg/L), and sodium selenite ([…])} (GIBCO) and culture was performed for 36 hours. […] Subsequently, the culture medium was replaced by an α-MEM culture medium supplemented with 20% fetal calf serum and culture was continued, whereupon the cardiomyocytes restored autonomous pulsation in 1 or 2 days.

Data set [3] relates to marmoset embryonic stem cells. Put plainly: Cell death inducing effect on marmoset embryonic stem cells (TMRM FACS, 5-day adherent culture). The conditions noted are these: 0.45 M, 2 hours. The method, then:
The marmoset embryonic stem cells were obtained from the Central Institute for Experimental Animals (Stem Cells, 2005 October; 23(9): 1304-13). The cells were cultured basically in accordance with the method described in this document. To be more specific, the marmoset embryonic stem cells were cultured to maintain their undifferentiated state using mouse embryonic fibroblasts (MEF) that had been inactivated for growth by treatment with mitomycin C. The culture medium of KO-DMEM (GIBCO), supplemented with 20% KO-SERUM (GIBCO), 1.6 mM L-glutamine, 0.1 mM non-essential amino acids (MEM), 0.2 mM β-mercaptoethanol (2-ME; Sigma), 100 IU/ml penicillin, 100 μg/ml streptomycin sulfate, and 8 ng/ml recombinant human leukemia inhibiting factor (LIF; Chemicon) or recombinant human basic fibroblast growth factor (bFGF; Peprotech) was used. Upon passaging, the cells were treated with 0.1% type III collagenase (Wortington) at 37° C. for 10 minutes to separate ES colonies. […] Thereafter, the cells treated with mannitol for 2 hours and the control cells were analyzed by FACS for the level of mitochondrial membrane potential on the basis of the fluorescent intensity of TMRM to check the state of survival of the stem cells; the results are shown in FIG. 5. […]

Where [4] appears, read: one week after the treatment, immunohistochemical technique.

As to `OC[C@@H](O)[C@@H](O)[C@H](O)[C@H](O)CO` [mannitol], the Toxicity in cardiomyocytes result in data set [1] is listed as “does not show significant toxicity in cardiomyocytes”. In addition, in data set [1] (then 3 days adherent culture), the Autonomously pulsating cells entry was “autonomously pulsating cell populations and autonomously pulsating single cells were found adherent to or suspended in the culture dish”; the “Colonies of cells assumed to be undifferentiated cells” value is “no such cell populations were found at all”. In addition, in data set [1] (setting [4]), the “Type of surviving cells (Nkx 2.5)” value is listed as “a great majority of the surviving cells were Nkx 2.5 positive cardiomyocytes” and the “Type of surviving cells (Oct-3/4)” value was “Oct-3/3 negative cells were hardly detectable”. Also, the “State of cells other than cardiomyocytes (cell death)” value in data set [2] (then culture in medium with 20% fetal calf serum) was “virtually all cells other than cardiomyocytes were found dead”. The “Nkx 2.5 positive cardiomyocytes among the obtained cells” value in data set [2] (immunostaining) was at least 98%. Besides, the “Mitochondrial membrane potential (TMRM fluorescence, FACS)” value in data set [3] is on record as “almost all of the cells treated with mannitol for 2 hours had lost membrane potential”. For the same compound, the “Survival after adherent culture for 5 days” value in data set [3] (then 5 days adherent culture) is reported as “none of the cells exposed to mannitol were found alive”.
